The target in this test is kinase domain of IRE1 alpha (His-tagged kinase dead construct KR, AA G547-L977, D688N) (Homo sapiens (Human), UniProt O75460, D688N). As to the kind of experiment: IRE1α TR-FRET competition binding assay. The conditions noted are these: competition with Kinase Tracer 236, 0.1 μM; one hour at room temperature. In short, it runs like this:
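Compound displacement of an ATP-site fluorescent tracer (0.1 μM final) measured by TR-FRET after 1 h at room temperature. Protein, a His-tagged D688N kinase/RNase construct from Sf9 cells (0.006 μM final), was pre-bound 1 h at 4° C to Eu anti-His antibody (0.002 μM) in pH 7.5 HEPES buffer.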
In general terms: TR-FRET usually uses a lanthanide donor and a delayed reading to cut background.

Where a name gives a salt, the structure may show the parent alone.

Sequence of kinase domain of IRE1 alpha (His-tagged kinase dead construct KR, AA G547-L977, D688N) (O75460 547-977 D688N): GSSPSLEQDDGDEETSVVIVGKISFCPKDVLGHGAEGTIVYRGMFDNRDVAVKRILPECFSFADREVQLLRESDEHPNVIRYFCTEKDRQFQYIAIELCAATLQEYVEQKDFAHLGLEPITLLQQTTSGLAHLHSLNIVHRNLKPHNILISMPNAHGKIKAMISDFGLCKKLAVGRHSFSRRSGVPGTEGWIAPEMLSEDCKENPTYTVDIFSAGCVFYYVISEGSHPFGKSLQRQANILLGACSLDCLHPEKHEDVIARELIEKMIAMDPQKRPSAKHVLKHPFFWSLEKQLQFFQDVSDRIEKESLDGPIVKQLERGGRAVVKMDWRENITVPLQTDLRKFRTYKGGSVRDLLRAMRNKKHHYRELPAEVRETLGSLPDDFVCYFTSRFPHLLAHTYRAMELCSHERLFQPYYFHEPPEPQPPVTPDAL

`Cc1cc(NS(=O)(=O)C2CCCCC2)cc(F)c1Oc1ncccc1-c1ccnc(N[C@H]2CCCNC2)n1` [Compound 117, (S)-N-(3-fluoro-5-methyl-4-((3-(2-(piperidin-3-ylamino)pyrimidin-4-yl)pyridin-2-yl)oxy)phenyl)cyclohexanesulfonamide hydrochloride]: the IC50 (as a rule, the midpoint of a concentration-inhibition curve) stood at 21 nM. This lies in the double-digit nanomolar range.

The compound `CCCS(=O)(=O)Nc1cc(C)c(Oc2ncccc2-c2ccnc(N[C@H]3CC[C@H](N)CC3)n2)c(F)c1` [Compound 118, N-(4-((3-(2-(((1r,4r)-4-aminocyclohexyl)amino)pyrimidin-4-yl)pyridin-2-yl)oxy)-3-fluoro-5-methylphenyl)propane-1-sulfonamide hydrochloride] yielded an IC50 of 47 nM.

The compound `Cc1cc(NS(=O)(=O)Cc2ccccc2)cc(F)c1Oc1ncccc1-c1ccnc(N[C@H]2CC[C@H](N)CC2)n1` [Compound 119, N-(4-((3-(2-(((1r,4r)-4-aminocyclohexyl)amino)pyrimidin-4-yl)pyridin-2-yl)oxy)-3-fluoro-5-methylphenyl)-1-phenylmethanesulfonamide hydrochloride] returned an IC50 of 13 nM.

`Cc1cc(NC(=O)C2CC2)cc(F)c1Oc1ncccc1-c1ccnc(N[C@H]2CC[C@H](N)CC2)n1` [Compound 120, N-(4-((3-(2-(((1r,4r)-4-aminocyclohexyl)amino)pyrimidin-4-yl)pyridin-2-yl)oxy)-3-fluoro-5-methylphenyl)cyclopropanecarboxamide hydrochloride] gave an IC50 of 110 nM.

`CCCS(=O)(=O)Nc1cc(F)c(Oc2ncccc2-c2ccnc(N[C@H]3CC[C@H](N)CC3)n2)c(Cl)c1` [Compound 121, N-(4-((3-(2-(((1r,4r)-4-Aminocyclohexyl)amino)pyrimidin-4-yl)pyridin-2-yl)oxy)-3-chloro-5-fluorophenyl)propane-1-sulfonamide hydrochloride] returned an IC50 of 26 nM.

Take `CCCS(=O)(=O)Nc1cc(F)c(Oc2ncccc2-c2ccnc(N[C@H]3CC[C@H](N)CC3)n2)c(F)c1` [Compound 122, N-(4-((3-(2-(((1r,4r)-4-aminocyclohexyl)amino)pyrimidin-4-yl)pyridin-2-yl)oxy)-3,5-difluorophenyl)propane-1-sulfonamide hydrochloride]: the IC50 is 20 nM. This IC50 and that of the compound before are within 1.5-fold of each other.

As to `Cc1c(NS(=O)(=O)c2ccccc2Cl)ccc(Oc2ncccc2-c2ccnc(N[C@H]3CCCNC3)n2)c1C` [Compound 123, (S)-2-Chloro-N-(2,3-dimethyl-4-((3-(2-(piperidin-3-ylamino)pyrimidin-4-yl)pyridin-2-yl)oxy)phenyl)benzenesulfonamide], the IC50 was 50 nM.

`CCCS(=O)(=O)Nc1cc(C)c(Oc2ncccc2-c2ccnc(N[C@H]3CCCNC3)n2)cc1C` [Compound 124, (S)-N-(2,5-Dimethyl-4-((3-(2-(piperidin-3-ylamino)pyrimidin-4-yl)pyridin-2-yl)oxy)phenyl)propane-1-sulfonamide] yielded an IC50 of 210 nM.

As to `Cc1cc(Oc2ncccc2-c2ccnc(N[C@H]3CCCNC3)n2)c(C)cc1NS(=O)(=O)c1ccccc1Cl` [Compound 125, (S)-2-chloro-N-(2,5-dimethyl-4-((3-(2-(piperidin-3-ylamino)pyrimidin-4-yl)pyridin-2-yl)oxy)phenyl)benzenesulfonamide], the IC50 worked out at 27 nM.

In turn, `CCCS(=O)(=O)Nc1cc(C)c(Oc2ncccc2-c2ccnc(N[C@H]3CCCNC3)n2)cc1C` [Compound 126, (S)-N-(2,5-Dimethyl-4-((3-(2-(piperidin-3-ylamino)pyrimidin-4-yl)pyridin-2-yl)oxy)phenyl)propane-1-sulfonamide] gave an IC50 of 280 nM.

In turn, `CCCS(=O)(=O)Nc1ccc(F)c(Oc2ncccc2-c2ccnc(N[C@H]3CCCNC3)n2)c1` [Compound 127, (S)-N-(4-fluoro-3-((3-(2-(piperidin-3-ylamino)pyrimidin-4-yl)pyridin-2-yl)oxy)phenyl)propane-1-sulfonamide] gave an IC50 of 370 nM. The IC50 values of the last two compounds are within 1.5-fold of each other.

Compound `O=S(=O)(Nc1ccc(F)c(Oc2ncccc2-c2ccnc(N[C@H]3CCCNC3)n2)c1)c1ccccc1Cl` [Compound 128, (S)-2-Chloro-N-(4-fluoro-3-((3-(2-(piperidin-3-ylamino)pyrimidin-4-yl)pyridin-2-yl)oxy)phenyl)benzenesulfonamide] had an IC50 of 11 nM. Compared with the last compound, the IC50 is about 34-fold lower.

In the case of `Cc1c(NC(=O)CC2CCCCC2)ccc(Oc2ncccc2-c2ccnc(N[C@H]3CCCNC3)n2)c1C` [Compound 129, (S)-2-Cyclohexyl-N-(2,3-dimethyl-4-((3-(2-(piperidin-3-ylamino)pyrimidin-4-yl)pyridin-2-yl)oxy)phenyl)acetamide], the IC50 amounted to 230 nM.

Regarding `Cc1c(NC(=O)Cc2ccc(Cl)cc2)ccc(Oc2ncccc2-c2ccnc(N[C@H]3CCCNC3)n2)c1C` [Compound 130, (S)-2-(4-Chlorophenyl)-N-(2,3-dimethyl-4-((3-(2-(piperidin-3-ylamino)pyrimidin-4-yl)pyridin-2-yl)oxy)phenyl)acetamide], the IC50 was 170 nM.

Consider `Cc1cc(NS(=O)(=O)c2ccccc2Cl)cc(C)c1Oc1ncccc1-c1ccnc(N[C@H]2CCCNC2)n1` [Compound 131, (S)-2-Chloro-N-(3,5-dimethyl-4-((3-(2-(piperidin-3-ylamino)pyrimidin-4-yl)pyridin-2-yl)oxy)phenyl)benzenesulfonamide hydrochloride], for which the IC50 came out at 59 nM.

With `O=S(=O)(Nc1cccc(Oc2ncccc2-c2ccnc(N[C@H]3CCCNC3)n2)c1)c1ccccc1Cl` [Compound 132, (S)-2-Chloro-N-(3-((3-(2-(piperidin-3-ylamino)pyrimidin-4-yl)pyridin-2-yl)oxy)phenyl)benzenesulfonamide hydrochloride], the IC50 is 32 nM.

In turn, `O=S(=O)(Cc1ccccc1)Nc1cccc(Oc2ncccc2-c2ccnc(N[C@H]3CCCNC3)n2)c1` [Compound 133, (S)-1-Phenyl-N-(3-((3-(2-(piperidin-3-ylamino)pyrimidin-4-yl)pyridin-2-yl)oxy)phenyl)methanesulfonamide hydrochloride] gave an IC50 of 120 nM.

For `O=S(=O)(Nc1ccc(Oc2ncccc2-c2ccnc(N[C@H]3CCCNC3)n2)cc1)c1ccccc1Cl` [Compound 134, (S)-2-Chloro-N-(4-((3-(2-(piperidin-3-ylamino)pyrimidin-4-yl)pyridin-2-yl)oxy)phenyl)benzenesulfonamide hydrochloride], the IC50 came out at 21 nM.

With `Cc1ccc(NS(=O)(=O)c2ccccc2Cl)cc1Oc1ncccc1-c1ccnc(N[C@H]2CCCNC2)n1` [Compound 135, (S)-2-Chloro-N-(4-methyl-3-((3-(2-(piperidin-3-ylamino)pyrimidin-4-yl)pyridin-2-yl)oxy)phenyl)benzenesulfonamide hydrochloride], the IC50 stood at 41 nM. This IC50 lies about 2-fold higher than the previous one.

The compound `Cc1ccc(NS(=O)(=O)Cc2ccccc2)cc1Oc1ncccc1-c1ccnc(N[C@H]2CCCNC2)n1` [Compound 136, (S)—N-(4-Methyl-3-((3-(2-(piperidin-3-ylamino)pyrimidin-4-yl)pyridin-2-yl)oxy)phenyl)-1-phenylmethanesulfonamide hydrochloride] came in with an IC50 of 200 nM. This IC50 lies about 4.9-fold higher than the previous one.

With `O=S(=O)(Nc1ccc(Cl)c(Oc2ncccc2-c2ccnc(N[C@H]3CCCNC3)n2)c1F)c1ccccc1Cl` [Compound 137, (S)-2-Chloro-N-(4-chloro-2-fluoro-3-((3-(2-(piperidin-3-ylamino)pyrimidin-4-yl)pyridin-2-yl)oxy)phenyl)benzenesulfonamide hydrochloride], the IC50 was determined as 7.4 nM.

`O=S(=O)(Cc1ccccc1)Nc1ccc(Cl)c(Oc2ncccc2-c2ccnc(N[C@H]3CCCNC3)n2)c1F` [Compound 138, (S)—N-(4-Chloro-2-fluoro-3-((3-(2-(piperidin-3-ylamino)pyrimidin-4-yl)pyridin-2-yl)oxy)phenyl)-1-phenylmethanesulfonamide] gave an IC50 of 15 nM.

The compound `Cc1c(NS(=O)(=O)c2ccccc2Cl)cccc1Oc1ncccc1-c1ccnc(N[C@H]2CCCNC2)n1` [Compound 139, (S)-2-Chloro-N-(2-methyl-3-((3-(2-(piperidin-3-ylamino)pyrimidin-4-yl)pyridin-2-yl)oxy)phenyl)benzenesulfonamide hydrochloride] showed an IC50 of 46 nM.

`Cc1c(NS(=O)(=O)Cc2ccccc2)cccc1Oc1ncccc1-c1ccnc(N[C@H]2CCCNC2)n1` [Compound 140, (S)—N-(2-Methyl-3-((3-(2-(piperidin-3-ylamino)pyrimidin-4-yl)pyridin-2-yl)oxy)phenyl)-1-phenylmethanesulfonamide hydrochloride] came in with an IC50 of 26 nM. This IC50 lies about 1.8-fold lower than the previous one.

`O=S(=O)(Nc1cccc(Oc2ncccc2-c2ccnc(N[C@H]3CCCNC3)n2)c1F)c1ccccc1Cl` [Compound 141, (S)-2-Chloro-N-(2-fluoro-3-((3-(2-(piperidin-3-ylamino)pyrimidin-4-yl)pyridin-2-yl)oxy)phenyl)benzenesulfonamide hydrochloride] gave an IC50 of 17 nM.

Compound `O=S(=O)(Cc1ccccc1)Nc1cccc(Oc2ncccc2-c2ccnc(N[C@H]3CCCNC3)n2)c1F` [Compound 142, (S)—N-(2-Fluoro-3-((3-(2-(piperidin-3-ylamino)pyrimidin-4-yl)pyridin-2-yl)oxy)phenyl)-1-phenylmethanesulfonamide hydrochloride] yielded an IC50 of 16 nM.

As to `CCCS(=O)(=O)Nc1ccc(Cl)c(Oc2ncccc2-c2ccnc(N[C@H]3CCCNC3)n2)c1F` [Compound 143, (S)—N-(4-Chloro-2-fluoro-3-((3-(2-(piperidin-3-ylamino)pyrimidin-4-yl)pyridin-2-yl)oxy)phenyl)propane-1-sulfonamide hydrochloride], the IC50 is 34 nM. This IC50 lies about 2.1-fold higher than the previous one.

For `CCCS(=O)(=O)Nc1cccc(Oc2ncccc2-c2ccnc(N[C@H]3CCCNC3)n2)c1F` [Compound 144, (S)—N-(2-Fluoro-3-((3-(2-(piperidin-3-ylamino)pyrimidin-4-yl)pyridin-2-yl)oxy)phenyl)propane-1-sulfonamide hydrochloride], the IC50 stood at 370 nM.
